Here are results for two compounds from publication PMC7411887, “New Paracyclophanylthiazoles with Anti-Leukemia Activity: Design, Synthesis, Molecular Docking, and Mechanistic Studies” (Molecules, 2020).

One assay deals with ROS in SR cells. The assay is described as follows: Mitochondrial production of ROS. Conditions: 30 min at 37 °C. The assay is classed as cell-based, human. As to the method:
Mitochondria play an essential role in the propagation of apoptosis. It is reported that, at an early stage, apoptotic stimuli are capable of modifying the mitochondrial transmembrane potential (Δψmt). Δψmt was recorded by the fluorescence of the dye JC-1.20. […] . The disruption of Δψmt is associated with the appearance of annexin V positivity in the treated cells when they are in an early apoptotic stage. It is documented that the dissipation of Δψmt is characteristic of apoptosis, and this was indicated with both microtubule-stabilizing and -destabilizing agents in different cell types. […] Mitochondrial membrane depolarization is associated with mitochondrial production of ROS [35]. Therefore, we investigated whether ROS production increased after treatment with the test compounds.
Figure 13 Mitochondrial production of ROS in SR cells with 3a and colchicine reference compared to control. […]
5. Adjust the cell concentration so at least 1 x10^4 cells should be analyzed per experimental condition. […] Mean fluorescence intensity in Ex/Em = 495/529 nm can be quantified and compared between untreated cells and cells treated with test compounds, or between different cell types. […]
4. For adherent cells: remove the ROS Label, add 100 μl of ROS Assay Buffer or PBS and measure fluorescence immediately, or treat the cells with 100 μL of diluted test compound(s) for desired period of time. […]

In a further assay the test system is BAX. In words: BAX assay on leukemia SR cell line. The assay is classed as cell-based, human. Conditions: for BAX Concentration: ± SD. The method, then: 19. Read the concentrations for unknown samples and controls from the standard curve.
All standards, controls and samples should be run in duplicate. […]
desiccant back into the pouch and seal the ziploc. Store unused wells at 4 °C.
4. Pipet 100 μL of the Samples into the appropriate wells.
7. Empty the contents of the wells and wash by adding 400 μL of wash solution to every well.
8. Repeat the wash 4 more times for a total of 5 washes.
9. After the final wash, empty or aspirate the wells and firmly tap the plate on a lint free paper towel to remove any remaining wash buffer.
10. Pipet 100 μL of yellow Antibody into each well, except the Blank.
12. Empty the contents of the wells and wash by adding 400 μL of wash solution to every
13. Repeat the wash 4 more times for a total of 5 washes.
14. After the final wash, empty or aspirate the wells and firmly tap the plate on a lint free
17. Empty the contents of the wells and wash by adding 400 μL of wash solution to every
18. Repeat the wash 4 more times for a total of 5 washes.
19. After the final wash, empty or aspirate the wells and firmly tap the plate on a lint free
20. Pipet 100 μL of Substrate Solution into each well.
21. Incubate for 30 minutes at room temperature on a plate shaker at ~500 rpm.
1. Mix all reagents thoroughly without foaming before use.
3. Take caution not to scratch the surface of the microwells.
5. Use the microwell strips immediately after washing or place upside down on a wet absorbent paper for not longer than 15 minutes.
Prepare standard (1:2 dilution) in duplicate ranging from 32

A further assay relates to leukemia SR cells. The assay is described as follows: Cell cycle analysis, propidium iodide flow cytometry. Conditions: for DNA Content % %G0-G1 / DNA Content % %G2-M / DNA Content % %Pre G1 / DNA Content % %S: at IC50, 24 h. (In general: In flow cytometry, cells or beads pass a laser one at a time.)
The next assay relates to SNB-19. The assay is described as follows: NCI five-dose assay. The assay is classed as cell-based. Conditions: CNS Cancer SNB-19.
A further assay relates to SK-OV-3. In words: NCI five-dose assay. Conditions: Ovarian Cancer SK-OV-3. In kind it is cell-based.
Another assay deals with COLO 205. The assay is described as follows: NCI five-dose assay. Conditions: Colon Cancer COLO 205. In kind it is cell-based, human.
Another assay concerns KM12. In words: NCI five-dose assay. The assay is classed as cell-based. Conditions: Colon Cancer KM12.
Another assay has as its system RXF393. In words: NCI five-dose assay. In kind it is cell-based. Conditions: Renal Cancer RXF393.
Another assay concerns UO-31. The assay is described as follows: NCI five-dose assay. In kind it is cell-based. Conditions: Renal Cancer UO-31.
A further assay deals with HCC-2998. In words: NCI five-dose assay. In kind it is cell-based. Conditions: Colon Cancer HCC-2998.
For a further assay, the system named is UACC-257. In words: NCI five-dose assay. In kind it is cell-based. Conditions: Melanoma UACC-257.
For assay [1], the system named is P-glycoprotein (Pgp) in MDR-SR Leukemia cell line. In words: Multidrug resistance assay (Pgp ELISA). The assay is classed as cell-based, human. Conditions: relative to control. A general note: In an ELISA, binding on a coated surface is turned into a signal by an enzyme label.
Where [2] appears, read: Homo sapiens, read-out: GI50 Concentration/Cell Line.

One may read the LC50 as the concentration that kills 50% of the test population.

“Also recorded” adds a separate entry of the source.

Regarding `COc1cc2c(c(OC)c1OC)-c1ccc(OC)c(=O)cc1[C@@H](NC(C)=O)CC2` [Colchicine, colchicine, reference compound], the “ROS % of control” value in the assay on ROS in SR cells was 96.18%. The “BAX Concentration” value in the assay on BAX was determined as 341.8 ± 4.310 pg/mL. In the assay on leukemia SR cells, the “DNA Content % Comment” value is “cell growth arrest (G2/M)”, the “DNA Content % %G0-G1” value is recorded as 26.58%, the “DNA Content % %G2-M” value worked out at 48.15 ± 1.000 % and the “DNA Content % %Pre G1” value came to 36.24%. For the same compound, in the assay with leukemia SR cells, the “DNA Content % %S” value was 25.27%.
As for `COC(=O)C=C1SC(=NNC(=O)c2cc3ccc2CCc2ccc(cc2)CC3)N(c2ccccc2)C1=O` [Compound 3a], the “TGI Concentration/Cell Line” value was determined as 4.25 µM in the assay with SNB-19; 7.53 µM in the assay on SK-OV-3; 4.61 µM in the assay with COLO 205; 4.15 µM with KM12; 3.86 µM with RXF393; 3.08 µM in the assay on UO-31. In addition, the “TGI Concentration/Cell Line” value with HCC-2998 is recorded as 3.45 µM; in the assay on UACC-257, above 100 µM. In the assay with SNB-19 (Homo sapiens), the LC50 (concentration killing 50% of cells) came to 9.26 µM. The GI50 with SNB-19 (setting [2]) came out at 1.95 µM; in the assay on SK-OV-3 (setting [2]), 3.55 µM; in the assay with COLO 205 (setting [2]), 2.13 µM; with KM12 (setting [2]) it was 2.03 µM; in the assay on UO-31 (setting [2]), 1.53 µM; in the assay on HCC-2998 (setting [2]) it was 1.78 µM. In addition, the GI50 with UACC-257 (setting [2]) worked out at 5.14 µM. In the assay on SK-OV-3 (Homo sapiens), the LC50 (NCI lethal concentration, 50% cell kill) was above 100 µM. The “ROS % of control” value in the assay with ROS in SR cells is 112.10%. The CC50 with KM12 (Homo sapiens, read-out: LC50 (the source's name)) is 8.51 µM. For the same compound, in the assay on RXF393 (Homo sapiens, RXF 393), the LC50 (50% lethal concentration) was above 100 µM. For the same compound, the results for the LC50 with UO-31 (Homo sapiens), in the assay on HCC-2998 (Homo sapiens) and with UACC-257 (Homo sapiens) were 6.2 µM, 6.68 µM and above 100 µM, respectively. Also, the “BAX Fold Change” value in the assay on BAX (relative to control) is around 7.98 fold. For the same compound, in the assay on BAX, the “BAX Concentration” value was 359 ± 3.830 pg/mL. Moreover, in the assay with leukemia SR cells, the “DNA Content % Comment” value was “significant growth arrest at the G2/M phase; also recorded: cell growth arrest (G2/M)”. Further, the “DNA Content % %G0-G1” value in the assay with leukemia SR cells worked out at 31.47%. Besides, the “DNA Content % %G2-M” value with leukemia SR cells stood at 44.74 ± 0.1747 %. For the same compound, the “DNA Content % %Pre G1” value in the assay on leukemia SR cells was 33.71%. Moreover, in the assay on leukemia SR cells, the “DNA Content % %S” value was 23.79%. Also, in assay [1], the “Pgp-Mediated MDR Fold Change” value was 1.15 fold.
